Earlier results as cited in patent publication US10543293B2, “Medical dressing” (BSN MEDICAL GMBH, priority 2013, dated 2020).

Legend:
[1] = generally assumed
human fibroblasts = conditions: NO concentrations employed in vitro
keratinocytes = conditions: NO concentrations employed in vitro; human keratinocytes
endothelial cells = conditions: NO concentrations employed in vitro; human endothelial cells

In the case of [N]=O [NO, nitric oxide], the “diffusion coefficient of NO relative to oxygen or carbon monoxide” value (at 37° C., higher than that of oxygen or carbon monoxide) is listed as “approximately 1.4 times”, the “diffusion path that can be achieved in the tissues” value (calculated on the basis of the diffusion coefficient) is listed as 500 μm and the “maximum solubility of NO in aqueous solutions” value [1] is listed as “approximately 2 mM”. The toxic effects (human fibroblasts) was “did not display any toxic effects”, the toxic effects (keratinocytes) was “did not display any toxic effects” and the toxic effects (endothelial cells) was “did not display any toxic effects”.
